Like-named read-outs stand apart in the source and are kept apart here. Bridge positions count the residues as written; N and C are the ends. Ends that are not written are not given here.
What was measured:
heart = settings: H. americanus; often seen, the converse in some individuals; ref Dickinson et al., 2018; cited from earlier work
AST-C receptor [1] = settings: cited from earlier work; for EC50: Apis mellifera single AST-C receptor, ref Urlacher et al., 2016, read-out: EC50, receptor activation; for ED50, receptor activation: Tribolium castaneum AST-C receptor, ref Audsley et al., 2013
Source text: Thus, the cognate receptor for AST-CCC remains elusive. Despite the well-known similarity in receptor sequences between AST-CR and the somatostatin receptor ([Krienkamp et al., 2002]; [Mayoral et al., 2010]; [Jékely, 2013]; [Verl ...

[2] = test system: antiserum raised against Manduca sexta AST-C; assay: AST-C radioimmunoassay standard curves and cross-reactivity; format: binding; settings: competitive RIA with iodinated AST-C tracer, antiserum 1:1000; typical standard curves
Experimental: AST-C (300 pmol, dissolved in 10 µl 200 mmol l^−1 phosphate buffer at pH 7.5) was radio iodinated with 9.25–12.5 MBq NaI^125 in 10^−5 mol l^−1 NaOH (PerkinElmer, Boston MA), using Chloramine-T ([Bolton, 1989]). Following termination of the reaction (4.3 µg cysteine in 100 µl phosphate buffer) and quenching (500 µl of 0.2 mg ml^−1 KI in phosphate buffer), radiolabeled peptide was separated from unincorporated iodide on Sep-Pak C18 cartridges (Waters, Milford, MA, USA), by firstly washing with 10 ml of 200 mmol l^−1 phosphate buffer then eluting the peptide with 40% isopropanol in 500 µl fractions. Small quantities (2 µl) were then taken for counting. Specific activities of 8–16 TBq mmol^−1 were routinely obtained.
RIA conditions were as follows: iodinated AST-C 35,000 dpm per 50 µl PBS containing 0.05% BSA and 0.02% sodium azide. An antiserum raised against Manduca sexta AST-C (a generous gift from Dr N. Audsley, FERA, York) was used at 1:1000 in PBS at 50 µl per tube. Standard peptides 2–2000 fmol per 50 µl and unknowns were assayed in duplicate. Tubes were first incubated for 6 h at room temperature, without tracer, which was then added, followed by 4°C incubation overnight. […]

YOs = test system: YOs; design: method as in Liu et al., 2021; settings: 10^−6 M; S. paramamosain; EIA measuring 20-hydroxyecdysone; ref Liu et al., 2021; cited from earlier work
vitellogenesis = settings: S. paramamosain; ref Liu et al., 2019; cited from earlier work
Source text: It is likely that vitellogenesis takes place during inter-molt in this species, as it does in C. maenas ([Styrishave et al., 2008]), a closely related portunid crab. Since AST-C and likely AST-CC are only ephemerally released during the completion of ecdysis in the latter species, involvement of AST-C in inhibition of vitellogenesis seems entirely improbable, and it is extremely unlikely that in vivo injection of AST-C, as reported by [Liu et al. (2019)], has any biological relevance i ...

AST-C receptor [3] = settings: S. paramamosain AST-C receptor, CRE-Luc reporter, HEK293; ref Liu et al., 2021; cited from earlier work
Source text: For decapod crustaceans, the only other AST-C receptors that have been functionally de-orphaned are those from Cancer borealis, using EGFP fused to the C-terminus of the AST-C receptor and expression in Spodoptera frugiperda SF9 cells ([Dickinson et al., 2019]), and from H. americanus, using chimeric EGFP constructs in Tricoplusia ni cells.

Substance | Effect on heart rate (heart) | EC50 (AST-C receptor [1]) | ED50, receptor activation (AST-C receptor [1]) | ED50 in AST-C RIA standard curve [2] | Effect on ecdysteroid synthesis by YOs in vitro (YOs) | Effect of in vivo injection on vitellogenesis (vitellogenesis) | ED50, receptor activation (AST-C receptor [3])
GNGDGRLYWRCYFNAVSCF (disulfide 11-18 (inferred)) [AST-CC, C. maenas AST-C family neuropeptide; synthetic (GenScript)] | decrease in amplitude and frequency of heart rate | 15.4 nM | 105.7 nM | 8000 fmol per tube |  |  | 
pQIRYHQCYFNPISCF (disulfide) [AST-C, allatostatin-C, C. maenas AST-C family neuropeptide with C-terminal PISCF motif; synthetic (GenScript)] | decrease in amplitude and frequency of heart rate | 14.6 nM | 25 nM | 20 fmol per tube | slightly inhibit | inhibits vitellogenesis | ~6 nM
